Measured values taken from patent US5641659A, “α-l-rhamnosidase for obtaining rhamnose, a process for its preparation and its use” (priority 1992, dated 1997).

Tested on: α-L-rhamnosidase from Penicillium sp. DSM 6826
Assay: Influence of different substances on the activity of the purified α-L-rhamnosidase
Type: biochemical
Conditions: control = 100
Experimental: p-Nitrophenyl-α-L-rhamnopyranoside is used as the substrate for detecting the α-L-rhamnosidase activity. 10 mg of this substrate are dissolved in 10 ml of ammonium acetate buffer (pH 5.5, 50 mM). 100 μl of culture filtrate or cell lysates are added to 900 μl of this solution and the mixture is then incubated at 40° C. After 0, 3, 6, 9 and 12 minutes, 200 μl are removed and mixed with 800 μl of 200 mM borate buffer, pH 9. The release-of p-nitrophenol is monitored photometrically at 410 nm; naringinase (following Romero et al. Anal. Biochem. 149 566-571 (1985)) was used as the control.
The investigations summarized in the table below were carried out using the purified enzyme.

SMILES: C[C@@H]1OC(O)[C@H](O)[C@H](O)[C@H]1O (single isomer, unassigned) [L-Rhamnose, 6-deoxy-L-mannose]
- % activity (substance at 0.5 M): 51%
- % activity (substance at 1.0 M): 39.5%
- % activity (substance at 1.5 M): 26.4%

SMILES: [Ca+2].[Cl-].[Cl-] [CaCl2]
- % activity (substance at 20 mM): 127%

SMILES: [Cl-].[Cl-].[Co+2] [CoCl2]
- % activity (substance at 2 mM): 41%

SMILES: [Cl-].[Cs+] [CsCl]
- % activity (substance at 2 mM): 96%

SMILES: [Cl][Cu][Cl] [CuCl2]
- % activity (substance at 0.5 mM): 40%

SMILES: O=C(O)CN(CCN(CC(=O)O)CC(=O)O)CC(=O)O [EDTA, reference compound]
- % activity (substance at 10 mM): 22%

SMILES: O=C(O)CN(CCOCCOCCN(CC(=O)O)CC(=O)O)CC(=O)O [EGTA, reference compound]
- % activity (substance at 10 mM): 60%

SMILES: O=S(=O)([O-])[O-].[Fe+2] [FeSO4]
- % activity (substance at 0.5 mM): 100%

SMILES: [Cl-].[K+] [KCl]
- % activity (substance at 100 mM): 69%

SMILES: O=S(=O)([O-])[O-].[Mg+2] [MgSO4]
- % activity (substance at 2 mM): 106%

SMILES: [Cl][Mn][Cl] [MnCl2]
- % activity (substance at 2 mM): 27%

SMILES: [Cl-].[Cl-].[Zn+2] [ZnCl2]
- % activity (substance at 2 mM): 65%
